Test results as given in paper PMC12169475 (ACS Medicinal Chemistry Letters, 2025).
Read-outs that look alike come from different tables or passages of the source. Ends that are not written are not given here.

Experiments:
[1] = system: A. baumannii NICD 15283 (C); design: key: S - Susceptible; R - Resistant; I – Intermediate; conditions: A. baumannii NICD 15283 clinical isolate; ref NICD; cited from earlier work
[2] = system: E. cloacae NICD 16103 (C); design: key: S - Susceptible; R - Resistant; I – Intermediate; conditions: E. cloacae NICD 16103 clinical isolate; ref NICD; cited from earlier work
E. coli ATCC 700928 = conditions: for Modal MIC: E. coli ATCC 700928, cation-adjusted MHB, ~5 x 10^5 CFU/mL, 37°C 20 h, OD600, n = 6; for Selectivity index (HaCat LC50 / MIC): E. coli ATCC 700928 over HaCat cells
Description: (§1) Antibacterial activity against a panel of standard laboratory strains and clinical isolates.
(§2) Antimicrobial activity was evaluated against a panel of Gram-negative bacteria maintained by H3D, University of Cape Town, consisting of six laboratory reference strains and two clinical isolates. Briefly, bacterial colonies from an LB agar plate were picked and cultured in cation-adjusted Mueller Hinton broth (MHB) at 37°C with 180 rpm shaking, overnight. Cultures were […]
(§3) back diluted to reach a starting optical density at 600 nm (OD600) of 0.1 and then diluted 100- […]
(§4) media down polypropylene 96-well plates. Inoculum was added at a 1:1 ratio resulting in a […]
(§5) (Suppl. Table S2). Plates were incubated at 37°C for 20 h and the OD600 determined. Minimum inhibition concentrations (MICs) were determined from a minimum of three biological repeats. […]
(§6) the background absorbance.
(§7) Caution! All bacterial work was conducted using appropriate biosafety level 2 (BSL-2) practices.
(§8) Clinical isolates and reference strains were handled in a biosafety cabinet with proper PPE to prevent exposure and contamination.

[3] = system: K. pneumoniae ATCC BAA-1705; conditions: for Modal MIC: K. pneumoniae ATCC BAA-1705, cation-adjusted MHB, ~5 x 10^5 CFU/mL, 37°C 20 h, OD600, n = 6; for Selectivity index (HaCat LC50 / MIC): K. pneumoniae ATCC BAA-1705 over HaCat cells
Description: as §1, §2, §3, §4, §5, §6, §7, §8

P. aeruginosa PAO1 = conditions: for Modal MIC: P. aeruginosa PAO1, cation-adjusted MHB, ~5 x 10^5 CFU/mL, 37°C 20 h, OD600, n = 6; for Selectivity index (HaCat LC50 / MIC): P. aeruginosa PAO1 over HaCat cells
Description: as §1, §2, §3, §4, §5, §6, §7, §8

E. coli ATCC 25922 = conditions: for Modal MIC: E. coli ATCC 25922, cation-adjusted MHB, ~5 x 10^5 CFU/mL, 37°C 20 h, OD600, triplicate experiments in duplicate (n = 6); for Selectivity index (HaCat LC50 / MIC): E. coli ATCC 25922 over HaCat cells
Description: as §1, §2, §3, §4, §5, §6, §7

A. baumannii ATCC 19606 = conditions: for Modal MIC: A. baumannii ATCC 19606, cation-adjusted MHB, ~5 x 10^5 CFU/mL, 37°C 20 h, OD600, n = 6; for Selectivity index (HaCat LC50 / MIC): A. baumannii ATCC 19606 over HaCat cells
Description: as §1, §2, §3, §4, §5, §6, §7, §8

[4] = system: A. baumannii NICD 15283 (C); conditions: for Modal MIC: A. baumannii NICD 15283 clinical isolate, cation-adjusted MHB, ~5 x 10^5 CFU/mL, 37°C 20 h, OD600, n = 6; for Selectivity index (HaCat LC50 / MIC): A. baumannii NICD 15283 clinical isolate over HaCat cells
Description: as §1, §2, §3, §4, §5, §6, §7, §8

E. cloacae ATCC 700323 = conditions: for Modal MIC: E. cloacae ATCC 700323, cation-adjusted MHB, ~5 x 10^5 CFU/mL, 37°C 20 h, OD600, n = 6; for Selectivity index (HaCat LC50 / MIC): E. cloacae ATCC 700323 over HaCat cells
Description: as §1, §2, §3, §4, §5, §6, §7, §8

[5] = system: E. cloacae NICD 16103 (C); conditions: for Modal MIC: E. cloacae NICD 16103 clinical isolate, cation-adjusted MHB, ~5 x 10^5 CFU/mL, 37°C 20 h, OD600, n = 6; for Selectivity index (HaCat LC50 / MIC): E. cloacae NICD 16103 clinical isolate over HaCat cells
Description: as §1, §2, §3, §4, §5, §6, §7, §8

E. cloacae NICD 16103 = format: cell-based, Enterobacter cloacae; conditions: then MIC 20 h 37°C; for MIC after trypsin treatment: trypsin 0.15 U/mL pH 7.4 (picture: 1 mM), 1 h 37°C, inactivated 60°C 20 min
HaCat cells [6] = conditions: previously reported, ref Van der Walt et al.; cited from earlier work
Description: The toxicity of the analogues was assessed against HaCat cells, which serve as a relevant model for the intended topical application of these peptides in burn wound care.

mammalian erythrocytes = conditions: previously reported, ref Van der Walt et al.; cited from earlier work
HepG2 cells = conditions: previously reported, ref Van der Walt et al.; cited from earlier work
HaCat cells [7] = assay: In vitro cytotoxicity screening against epidermal HaCat cells (MTT); conditions: 24 h exposure in total (21 h + 3 h MTT), OD570, three independent experiments in duplicate (n = 6)

Compound	Antimicrobial susceptibility profile [1]	Antimicrobial susceptibility profile [2]	Modal MIC (E. coli ATCC 700928)	Modal MIC [3]	Modal MIC (P. aeruginosa PAO1)	Modal MIC (E. coli ATCC 25922)	Modal MIC (A. baumannii ATCC 19606)	Modal MIC [4]	Modal MIC (E. cloacae ATCC 700323)	Modal MIC [5]	other results
NCC[C@H](O)C(=O)N[C@@H]1C[C@H](N)[C@@H](O[C@H]2O[C@H](CN)[C@@H](O)[C@H](O)[C@H]2O)[C@H](O)[C@H]1O[C@H]1O[C@H](CO)[C@@H](O)[C@H](N)[C@H]1O [Amikacin]	R	S	–	–	–	–	–	–	–	–	–
O=C(O)c1cn(C2CC2)c2cc(N3CCNCC3)c(F)cc2c1=O [Ciprofloxacin, reference compound]	–	–	0.25 µg/mL	> 32 µg/mL	0.5 µg/mL	–	–	–	–	–	–
CNC(C)C1CCC(N)C(OC2C(N)CC(N)C(OC3OCC(C)(O)C(NC)C3O)C2O)O1 (centres unmarked) [Gentamicin, reference compound]	R	R	0.5 µg/mL	1/2	4 µg/mL	0.5 µg/mL	32 µg/mL	16/32	2 µg/mL	> 32 µg/mL	–
C[C@@H](O)[C@H]1C(=O)N2C(C(=O)O)=C(SCCN=CN)C[C@H]12 [Imipenem]	R	R	–	–	–	–	–	–	–	–	–
CC[C@H](C)[C@H](NC(=O)CN)C(=O)NCC(=O)N[C@@H](C)C(=O)N[C@H](C(=O)N[C@@H](CC(C)C)C(=O)N[C@@H](CCCCN)C(=O)N[C@H](C(=O)N[C@@H](CC(C)C)C(=O)N[C@H](C(=O)N[C@H](C(=O)NCC(=O)N[C@@H](CC(C)C)C(=O)N1CCC[C@H]1C(=O)N[C@@H](C)C(=O)N[C@@H](CC(C)C)C(=O)N[C@H](C(=O)N[C@@H](CO)C(=O)N[C@@H](Cc1c[nH]c2ccccc12)C(=O)N[C@H](C(=O)N[C@@H](CCCCN)C(=O)N[C@@H](CCCNC(=N)N)C(=O)N[C@@H](CCCCN)C(=O)N[C@@H](CCCNC(=N)N)C(=O)N[C@@H](CCC(N)=O)C(=O)N[C@@H](CCC(N)=O)C(N)=O)[C@@H](C)CC)[C@@H](C)CC)[C@@H](C)O)[C@@H](C)O)C(C)C)C(C)C [Melittin, reference compound]	–	–	4 µg/mL	–	2 µg/mL	–	–	4 µg/mL	–	8 µg/mL	–
C[C@@H](O)[C@H]1C(=O)N2C(C(=O)O)=C(S[C@@H]3CN[C@H](C(=O)N(C)C)C3)[C@H](C)[C@H]12 [Meropenem, reference compound]	R	R	–	–	–	–	–	32 µg/mL	–	16 µg/mL	–
CC1(C)[C@H](C(=O)O)N2C(=O)C[C@H]2S1(=O)=O [Sulbactam]	I	R	–	–	–	–	–	–	–	–	–
CN(C)[C@@H]1C(O)=C(C(N)=O)C(=O)[C@@]2(O)C(O)=C3C(=O)c4c(O)cccc4[C@@](C)(O)[C@H]3C[C@@H]12 [Tetracycline]	R	R	–	–	–	–	–	–	–	–	–
NC[C@H]1O[C@H](O[C@H]2[C@H](O)[C@@H](O[C@H]3O[C@H](CO)[C@@H](O)[C@H](N)[C@H]3O)[C@H](N)C[C@@H]2N)[C@H](N)C[C@@H]1O [Tobramycin]	R	R	–	–	–	–	–	–	–	–	–
GKVWDWIKSTAKKLWN-NH2 [Opis16a]	–	–	–	–	–	–	–	–	–	–	MIC in FCS (20%) (E. cloacae NICD 16103; peptide preincubated in 20% FCS 1 h at 37°C): 64 µg/mL; MIC after trypsin treatment (E. cloacae NICD 16103): > 32 µg/mL; HaCat toxicity LC50 + SD (HaCat cells [6]): 311 ± 12 µg/mL; HC50 (mammalian erythrocytes): > 256 µg/mL; LC50 (HepG2 cells): 118 ± 8 µg/mL
GKVWKWIKSTAKKLWN-NH2 [Opis16aD5K]	–	–	–	16 µg/mL	8 µg/mL	16 µg/mL	8 µg/mL	8 µg/mL	16 µg/mL	8 µg/mL	Selectivity index (HaCat LC50 / MIC) (A. baumannii ATCC 19606): 18.5; Selectivity index (HaCat LC50 / MIC) [4]: 18.5; Selectivity index (HaCat LC50 / MIC) (E. cloacae ATCC 700323): 9.27; Selectivity index (HaCat LC50 / MIC) [5]: 18.5; Selectivity index (HaCat LC50 / MIC) [3]: 9.27; Selectivity index (HaCat LC50 / MIC) (P. aeruginosa PAO1): 18.5; HaCat toxicity LC50 + SD (HaCat cells [7]): 148 ± 6 µg/mL
GKVWKWIKSTARRLWN-NH2 [Opis16aCterKR]	–	–	4 µg/mL	8 µg/mL	4 µg/mL	8 (8×) μg/mL	4 µg/mL	8 µg/mL	8 (8×) μg/mL	4 (4×) μg/mL	Selectivity index (HaCat LC50 / MIC) (E. coli ATCC 25922): 22.6; Selectivity index (HaCat LC50 / MIC) (A. baumannii ATCC 19606): 45.2; Selectivity index (HaCat LC50 / MIC) [4]: 22.6; Selectivity index (HaCat LC50 / MIC) (E. cloacae ATCC 700323): 22.6; Selectivity index (HaCat LC50 / MIC) [5]: 45.2; Selectivity index (HaCat LC50 / MIC) (E. coli ATCC 700928): 45.2; Selectivity index (HaCat LC50 / MIC) [3]: 22.6; Selectivity index (HaCat LC50 / MIC) (P. aeruginosa PAO1): 45.2; MIC after trypsin treatment (E. cloacae NICD 16103): > 32 µg/mL; HaCat toxicity LC50 + SD (HaCat cells [7]): 181 ± 8 µg/mL
GRVWRWIKSTAKKLWN-NH2 [Opis16aNterKR]	–	–	4 µg/mL	16 µg/mL	4 µg/mL	8 (8×) μg/mL	4 µg/mL	8 µg/mL	16 µg/mL	8 µg/mL	Selectivity index (HaCat LC50 / MIC) (E. coli ATCC 25922): 17.3; Selectivity index (HaCat LC50 / MIC) (A. baumannii ATCC 19606): 34.6; Selectivity index (HaCat LC50 / MIC) [4]: 17.3; Selectivity index (HaCat LC50 / MIC) (E. cloacae ATCC 700323): 8.64; Selectivity index (HaCat LC50 / MIC) [5]: 17.3; Selectivity index (HaCat LC50 / MIC) (E. coli ATCC 700928): 34.6; Selectivity index (HaCat LC50 / MIC) [3]: 8.64; Selectivity index (HaCat LC50 / MIC) (P. aeruginosa PAO1): 34.6; HaCat toxicity LC50 + SD (HaCat cells [7]): 138 ± 14 µg/mL
GRVWRWIRSTARRLWN-NH2 [Opis16aKR]	–	–	4 µg/mL	16 µg/mL	4 µg/mL	8 (8×) μg/mL	4 µg/mL	8 µg/mL	8 (8×) μg/mL	4 (4×) μg/mL	Selectivity index (HaCat LC50 / MIC) (E. coli ATCC 25922): 16.4; Selectivity index (HaCat LC50 / MIC) (A. baumannii ATCC 19606): 32.9; Selectivity index (HaCat LC50 / MIC) [4]: 16.4; Selectivity index (HaCat LC50 / MIC) [5]: 32.9; Selectivity index (HaCat LC50 / MIC) (E. coli ATCC 700928): 32.9; Selectivity index (HaCat LC50 / MIC) [3]: 8.21; Selectivity index (HaCat LC50 / MIC) (P. aeruginosa PAO1): 32.9; HaCat toxicity LC50 + SD (HaCat cells [7]): 131 ± 5 µg/mL
Polymyxin B [reference compound]	–	–	0.5 µg/mL	0.5 µg/mL	–	0.25 µg/mL	1 µg/mL	1 µg/mL	0.25 µg/mL	–	–
